{"source": "patent US20210189327A1", "about": "“3D […] CONSTRUCTS AND METHODS OF MAKING THEREOF” (McMaster University, priority 2019, published 2021)", "tested_on": "MCF-7 cells", "assay": "Effect of actin cytoskeleton impairment on spheroid formation and consolidation", "assay_type": "cell-based", "details": "100 nM; 1 hr pretreatment without (T-nT) or with (T-T) the same concentration during spheroid formation; 5×10^5 MCF-7 cells in large wells; P-value>0.05", "method": "Rapid Formation of Spheroidal Tissue Constructs. In order to form spheroidal tissue constructs, PDMS molds in the form of circular wells with spherical bottom were used. These molds were prepared by mixing PDMS and its curing agent with the ratio of 10:1 and casting it on the Poly lactic acid (PLA) master mold with negative of the required patterns. Master molds were designed using software Solidworks© and 3D printed using a Stereolithography (SLA) based 3D printer (Objet 24 Desktop 3D printer). A large and small well size were created with diameters of 4 and 2.5 mm respectively. MCF-7 (Michigan Cancer Foundation-7, a breast cancer cell line) cells were cultured in Dulbecco's Modified Eagle Medium (DMEM) (Thermofisher, high glucose) supplemented with 10% V/V fetal bovine serum (FBS) (Thermofisher, US origin) and 1% Penicillin-Streptomycin (Thermofisher, 10000 U/mL) until 70% confluent. Cells were trypsinized and detached from tissue culture flasks. Required number of cells (10^5 or 10^6) were aliquoted, precipitated using centrifugation, and resuspended in proper amount of medium (5 μL for small wells, 15 μL for large wells). The cell solution then was added to the equal amount of bovine collagen type I (Thermofisher, 5 mg/mL) and mixed to get a uniform distribution of cells. […]", "data": [{"molecule": "C/C1=C/C(=O)O[C@@H]2C[C@@H](CC[C@H](C)/C=C\\C=C\\CC1)O[C@@](O)([C@@H]1CSC(=O)N1)C2", "note": "[latrunculin A, Latrunculin A]", "values": [{"measurement": "difference between spheroid radii after 6 hrs versus untreated control (nT-nT)", "result": "no meaningful difference"}]}]}
